One assay has as its target human CB2 receptor (Homo sapiens, UniProt P34972). The assay is described as follows: CB2 (h) receptor ligand binding (competition). The source says: (§1) The specific ligand binding to the receptors is defined as the difference between complete binding and non-specific binding determined in the presence of an excess of unlabelled ligand (see, for example, MUNRO, S., THOMAS, K. L. and ABU-SHAAR, M. (1993), Molecular characterisation of a peripheral receptor for cannabinoids.
(§2) The IC50 values (concentration necessary for half-maximum inhibition of the specific control binding) and Hill coefficients (nH) are obtained by non-linear regression analyses of the competition curves, with the curve matching being carried out in accordance with the Hill equation.
(§3) The inhibition constants (Ki) are calculated in accordance with the Cheng Prusoff equation (Ki=IC50/1+(L/KD)).

In another assay the target is human CB1 receptor (Homo sapiens, UniProt P21554). The assay is described as follows: CB1 (h) receptor ligand binding (competition).
Description: as §1, §2, §3

The mark [1] stands for this setting: calculated by Cheng Prusoff equation.
Where [2] appears, read: half-maximum inhibition of specific control binding.
Where [3] appears, read: non-linear regression of competition curve.

Each structure is given as a SMILES string.

These results are taken from US8133887B2, “Oxaphenanthrene derivatives” (Merck Patent GmbH, priority 2005, dated 2012).

Sequence of human CB1 receptor (P21554 whole entry): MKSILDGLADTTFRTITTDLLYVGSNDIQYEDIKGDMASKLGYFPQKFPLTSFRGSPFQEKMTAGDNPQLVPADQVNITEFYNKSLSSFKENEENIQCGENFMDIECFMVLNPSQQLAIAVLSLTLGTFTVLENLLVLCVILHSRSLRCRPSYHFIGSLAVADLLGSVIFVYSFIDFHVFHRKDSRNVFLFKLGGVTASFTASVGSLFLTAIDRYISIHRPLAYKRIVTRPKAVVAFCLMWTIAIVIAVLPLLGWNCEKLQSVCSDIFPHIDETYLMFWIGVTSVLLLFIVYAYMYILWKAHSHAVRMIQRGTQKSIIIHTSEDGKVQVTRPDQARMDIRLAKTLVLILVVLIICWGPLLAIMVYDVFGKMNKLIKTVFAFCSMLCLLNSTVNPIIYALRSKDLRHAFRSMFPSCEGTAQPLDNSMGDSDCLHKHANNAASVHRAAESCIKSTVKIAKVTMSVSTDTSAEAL
Sequence of human CB2 receptor (P34972 whole entry): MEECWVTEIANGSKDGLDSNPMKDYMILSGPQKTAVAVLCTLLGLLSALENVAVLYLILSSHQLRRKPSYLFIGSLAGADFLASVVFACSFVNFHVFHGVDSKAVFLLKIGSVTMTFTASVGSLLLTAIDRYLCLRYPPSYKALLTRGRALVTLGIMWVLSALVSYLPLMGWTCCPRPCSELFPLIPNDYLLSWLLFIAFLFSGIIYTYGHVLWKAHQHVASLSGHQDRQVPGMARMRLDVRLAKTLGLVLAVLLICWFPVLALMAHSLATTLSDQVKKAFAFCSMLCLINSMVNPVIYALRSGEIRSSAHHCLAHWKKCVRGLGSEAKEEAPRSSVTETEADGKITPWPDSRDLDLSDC

`CCCCCc1cc(O)c2c(c1)OC(F)(F)C1CCCCC21` (stereo not drawn) [Compound Ia]: the Ki – broadly, a dissociation constant, usually derived from enzyme kinetics or from competition with a known ligand – on human CB2 receptor (setting [1]) is 920 nM; on human CB1 receptor (setting [1]), 1900 nM. Moreover, the results for the IC50 at human CB2 receptor (setting [2]) and at human CB1 receptor (setting [2]) were 1400 nM and 2200 nM, respectively. In addition, the “nH (Hill coefficient)” value is 0.9 on human CB2 receptor (setting [3]) and 1.5 at human CB1 receptor (setting [3]).
